Measurements as given in article PMC11725581, “Developing novel Lin28 inhibitors by computer aided drug design” (Cell Death Discovery, 2025).
“Also recorded” adds a separate entry of the source.

Key:
VOA1066 cells = assay: Cell proliferation (Incucyte), VOA1066; assay type: cell-based
Excerpt: To further evaluate whether the suppressive effects of Ln268 are specific to Lin28-positive cancer cells, we compared cell growth rates of DuNE (Lin28b-positive line) and Du145 (Lin28b-negative line), both of which are Lin28a-negative. DuNE has the same genomic background with Du145 except for the transduction of the SRRM4 gene. […] Furthermore, Ln268 had no impact on the cell growth of DuNE(KO) cells, in which the Lin28b gene was knocked out by CRISPR (Fig. 5C). […] We also tested several ovarian and endometrial cancer cell lines with different Lin28a and Lin28b expression profiles (Fig. 5E).

Lin28b ZKD = target: T1, Lin28b ZKD (Homo sapiens, UniProt Q6ZN17); assay: Fluorescence polarization (FP) assay, Lin28b ZKD:pre-let-7d interaction; assay type: binding; settings: FP / EMSA
T1 sequence (Q6ZN17 127-166 limits assumed): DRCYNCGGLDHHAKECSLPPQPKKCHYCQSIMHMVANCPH
Experimental: We conducted two biochemical assays, FP and EMSA, to validate the predicted compounds. To optimize the FP assays, we performed a series of titrations using: (1) FAM-labeled pre-let-7d RNA probe, (2) Lin28b ZKD protein, and (3) non-labeled pre-let-7 probe as a competitor (Fig. 2A). These assays yielded the optimal concentrations required for the subsequent FP validation assays, namely 10 nM for the pre-let-7d probe and 1 μM for Lin28b ZKD protein. The FP signal from the free probe was set as 0%, while the signal from the probe-ZKD complex in the absence of compounds was set as 100%. C1632 was used as a control Lin28 inhibitor (Fig. 2B). […] Since the docking pocket is almost identical between Lin28a and Lin28b homologs, we repeated the FP assays using Lin28a ZKD (Figure S2).
The fluorescein amidites (FAM)-tagged pre-Let-7d probe with the sequence of […] was purchased from Integrated DNA Technologies (IDT). The probe at the concentrations ranging from 1 nM to 50 uM was incubated with Lin28B (ZKD) or Lin28 (CSD+ZKD) to a final volume of 30 uL at room temperature for 20 min. To read the fluorescence, a TECAN 500 machine was used. Fluorescence polarization was calculated using the following equation:
P=(Fparrallel−Fperpendicular)/(Fparrallel+FperpendicularP)
where P is the fluorescence polarization reading, F parallel is the fluorescence intensity acquired from the parallel excitation plane, and F perpendicular is the fluorescence intensity acquired from the perpendicular direction of the excitation plane. The total fluorescence intensity is estimated using the following equation:
F=Fparallel+2FperpendicularF.
All the raw FP signal data from the TECAN 500 FP results were analyzed using Prism 8.0 (GraphPad, San Diego, CA, USA); normalized curves were plotted and IC50 values were estimated. All FP data were repeated three to five times.
Figure S1. Lin28b ZKD protein was incubated with the indicated compounds at the concentration of 0, 0.1, 0.2, 0.5, 1, 2, 5, 10, 20, 50, 100, and 200uM. FP signals were measured and plotted relative to that from vehicle.

[1] = test system: Lin28a-positive IGROV-1 cells; assay: Cell proliferation (Incucyte), IGROV-1 cells; assay type: cell-based

- activity in protein-based assays (Lin28b ZKD): performed less effectively than Ln15
SMILES: O=c1[nH]c(Nc2ccc(F)cc2O)cs1 [Ln268]
- effect on growth of VOA1066 cells (VOA1066 cells; Lin28a/Lin28b-positive): suppressed the growth
- IC50 (VOA1066 cells; cells express both Lin28a and Lin28b at relatively high levels): 400 nM
- cell proliferation, IGROV-1 [1]: strongly inhibited cell proliferation; also recorded: strong suppressive effects
